Experimental data: ChEMBL document CHEMBL5126512, “Current status of carbazole hybrids as anticancer agents” (Eur J Med Chem, 2022)
Each block holds one compound with its values, some of them ahead of it.

Key:
[1] = test system: A549; assay: Antiproliferative activity against human A549 cells assessed as cell growth inhibition measured after 72 hrs by MTT assay; type: functional, cell-based; settings: A549, 72 h
[2] = test system: HCT-116; assay: Antiproliferative activity against human HCT-116 cells assessed as cell growth inhibition measured after 72 hrs by MTT assay; type: functional, cell-based; settings: HCT-116, 72 h
[3] = test system: MDA-MB-231; assay: Antiproliferative activity against human MDA-MB-231 cells assessed as cell growth inhibition measured after 72 hrs by MTT assay; type: functional, cell-based; settings: MDA-MB-231, 72 h
[4] = test system: HepG2; assay: Antiproliferative activity against human HepG2 cells assessed as cell growth inhibition by MTT assay; type: functional, cell-based
[5] = Antiproliferative activity against human Lu1 cells assessed as cell growth inhibition by MTT assay; type: functional, cell-based
[6] = Antiproliferative activity against mouse […] cells assessed as cell growth inhibition by MTT assay; type: functional, cell-based
[7] = test system: SW480; assay: Antiproliferative activity against human SW480 cells assessed as cell growth inhibition by MTT assay; type: functional, cell-based
[8] = test system: MCF7; assay: Antiproliferative activity against human MCF7 cells assessed as cell growth inhibition measured after 48 hrs by SRB assay; type: functional, cell-based; settings: for IC50: MCF7, 48 h; for GI50: MCF7, time 48 hrs
[9] = test system: HOP-62; assay: Antiproliferative activity against human HOP-62 cells assessed as cell growth inhibition measured after 48 hrs by SRB assay; type: functional, cell-based; settings: HOP-62, 48 h
[10] = test system: SW-620; assay: Antiproliferative activity against human SW-620 cells assessed as cell growth inhibition measured after 48 hrs by SRB assay; type: functional, cell-based; settings: SW-620, 48 h
[11] = test system: OVCAR-3; assay: Antiproliferative activity against human OVCAR-3 cells assessed as cell growth inhibition measured after 48 hrs by SRB assay; type: functional, cell-based; settings: OVCAR-3, 48 h
[12] = test system: OVCAR-4; assay: Antiproliferative activity against human OVCAR-4 cells assessed as cell growth inhibition measured after 48 hrs by SRB assay; type: functional, cell-based; settings: OVCAR-4, 48 h
[13] = test system: 786-0; assay: Antiproliferative activity against human 786-0 cells assessed as cell growth inhibition measured after 48 hrs by SRB assay; type: functional, cell-based; settings: 786-0, 48 h
[14] = test system: UO-31; assay: Antiproliferative activity against human UO-31 cells assessed as cell growth inhibition measured after 48 hrs by SRB assay; type: functional, cell-based; settings: UO-31, 48 h
[15] = test system: MDA-MB-231; assay: Antiproliferative activity against human MDA-MB-231 cells assessed as cell growth inhibition measured after 48 hrs by SRB assay; type: functional, cell-based; settings: for IC50: MDA-MB-231, 48 h; for GI50: MDA-MB-231, time 48 hrs
[16] = test system: Hs-578T; assay: Antiproliferative activity against human Hs-578T cells assessed as cell growth inhibition measured after 48 hrs by SRB assay; type: functional, cell-based
[17] = test system: SNB-75; assay: Antiproliferative activity against human SNB-75 cells assessed as cell growth inhibition measured after 48 hrs by SRB assay; type: functional, cell-based; settings: SNB-75, 48 h
[18] = test system: HCT-116; assay: Cytotoxicity against human HCT-116 cells assessed as cell growth inhibition measured after 48 hrs by MTT assay; type: functional, cell-based; settings: HCT-116, 48 h
[19] = test system: HepG2; assay: Cytotoxicity against human HepG2 cells assessed as cell growth inhibition measured after 48 hrs by MTT assay; type: functional, cell-based; settings: HepG2, 48 h
[20] = test system: MCF7; assay: Cytotoxicity against human MCF7 cells assessed as cell growth inhibition measured after 48 hrs by MTT assay; type: functional, cell-based; settings: MCF7, 48 h
[21] = Cytotoxicity against human RPE-1 cells assessed as cell growth inhibition measured after 48 hrs by MTT assay; type: toxicity, cell-based; settings: RPE-1 (TERT-RPE1) cells
[22] = test system: ASPC1; assay: Anticancer activity against human ASPC1 cells assessed as cell growth inhibition measured after 72 hrs by Cell-Titre Glo luminescent cell viability assay; type: functional, cell-based; settings: ASPC1, 72 h
[23] = test system: SW1990; assay: Anticancer activity against human SW1990 cells assessed as cell growth inhibition measured after 72 hrs by Cell-Titre Glo luminescent cell viability assay; type: functional, cell-based; settings: SW1990, 72 h
[24] = test system: MCF7; assay: Antiproliferative activity against human MCF7 cells assessed as cell growth inhibition by MTT assay; type: functional, cell-based
[25] = test system: COLO 205; assay: Antiproliferative activity against human COLO 205 cells assessed as cell growth inhibition by MTT assay; type: functional, cell-based
[26] = test system: A549; assay: Antiproliferative activity against human A549 cells assessed as cell growth inhibition by MTT assay; type: functional, cell-based
[27] = test system: HeLa; assay: Antiproliferative activity against human HeLa cells assessed as cell growth inhibition by MTT assay; type: functional, cell-based
[28] = test system: MDA-MB-231; assay: Antiproliferative activity against human MDA-MB-231 cells assessed as cell growth inhibition by MTT assay; type: functional, cell-based
[29] = test system: MCF7; assay: Anticancer activity against human MCF7 cells assessed as cell growth inhibition measured after 24 hrs by MTT assay; type: functional, cell-based; settings: MCF7, 24 h
[30] = Cytotoxicity against human HFB4 cells assessed as cell growth inhibition measured after 24 hrs by MTT assay; type: toxicity, cell-based
[31] = biological target: Urokinase-type plasminogen activator (Homo sapiens, UniProt P00749); assay: Inhibition of urokinase plasminogen activator in human MCF7 cells measured after 24 hrs by ELISA method; type: cell-based
[32] = test system: A549; assay: Cytotoxicity against human A549 cells assessed as cell growth inhibition measured after 24 hrs by MTT assay; type: functional, cell-based; settings: A549, 24 h, pooled result: one value given for 4 cell lines, strains, targets or settings
[33] = test system: MCF7; assay: Cytotoxicity against human MCF7 cells assessed as cell growth inhibition measured after 72 hrs by MTT assay; type: functional, cell-based; settings: MCF7, 72 h
[34] = test system: MDA-MB-231; assay: Cytotoxicity against human MDA-MB-231 cells assessed as cell growth inhibition measured after 72 hrs by MTT assay; type: functional, cell-based; settings: MDA-MB-231, 72 h
[35] = test system: HepG2; assay: Cytotoxicity against human HepG2 cells assessed as cell growth inhibition measured after 72 hrs by MTT assay; type: functional, cell-based; settings: HepG2, 72 h
[36] = test system: HeLa; assay: Cytotoxicity against human HeLa cells assessed as cell growth inhibition measured after 72 hrs by MTT assay; type: functional, cell-based; settings: pooled result: one value given for 3 cell lines, strains, targets or settings

Compound: CCn1c2ccccc2c2cc(NC(=O)c3c(N)n[nH]c3Nc3ccccc3)ccc21
IC50 [18]: 2970 nM
IC50 [19]: 2970 nM
IC50 [20]: 2970 nM
IC50 at 48 h [21]: > 100000 nM

Compound: CCn1c2ccccc2c2cc(NC(=O)c3cc4cccc(OC)c4oc3=O)ccc21
IC50 [18]: 900 nM
IC50 [19]: 900 nM
IC50 [20]: 900 nM
IC50 at 48 h [21]: > 100000 nM

Compound: CCn1c2ccccc2c2cc(NC(=O)c3cc4cc(Br)cc(Br)c4oc3=O)ccc21
IC50 [18]: 900 nM
IC50 [19]: 900 nM
IC50 [20]: 900 nM

Compound: CC1CCN(CC(O)Cn2c3ccc(Cl)cc3c3cc(Cl)ccc32)CC1 (stereo not drawn)
IC50 [1]: 7100 nM
IC50 [2]: 7100 nM
IC50 [3]: 7100 nM

Compound: COc1cc(-c2cc(-c3ccc4c(c3)c3ccccc3n4-c3nc(-c4ccc(Cl)cc4)ns3)on2)cc(OC)c1OCc1cc(-c2ccncc2)no1
IC50 [32]: 10 nM

Compound: COc1cc(-c2cc(COc3c(OC)cc(-c4cc(-c5ccc6c(c5)c5ccccc5n6-c5nc(-c6ccc(Cl)cc6)ns5)on4)cc3OC)on2)cc(OC)c1OC
IC50 [32]: 21 nM

Compound: COc1cc(NC(=O)Nc2cc(C)c3[nH]c4ccc(Br)cc4c3c2C)cc(OC)c1OC
IC50 [33]: 1930 nM
IC50 [34]: 1930 nM
IC50 [35]: 1930 nM
IC50 [36]: 1930 nM

Compound: O=C(CCCn1c2ccc(Br)cc2c2cc(Br)ccc21)NCCN1CCNCC1
GI50 [8]: 8000 nM
GI50 [15]: 4700 nM

The next lines start with results.

IC50 [1]: 7100 nM
IC50 [2]: 7100 nM
IC50 [3]: 7100 nM
Compound: OC(CN1CCCCC1)Cn1c2ccc(Cl)cc2c2cc(Cl)ccc21 (stereo not drawn)

IC50 [4]: 3990 nM
IC50 [7]: 3990 nM
Compound: COc1cc2c(cc1C)c1ccccc1n2CC(O)CN1CCN(C)CC1 (stereo not drawn)
IC50 [5]: 3990 nM
IC50 [6]: 3990 nM

IC50 [8]: 1710 nM
IC50 [10]: 1710 nM
IC50 [11]: 1710 nM
IC50 [12]: 1710 nM
IC50 [13]: 1710 nM
IC50 [15]: 1710 nM
Compound: Cc1c2ccncc2c(C(=O)NCc2ccccc2)c2c1[nH]c1ccccc12
IC50 [9]: 1710 nM
IC50 [14]: 1710 nM
IC50 [16]: 1710 nM
IC50 [17]: 1710 nM

IC50 [22]: 3420 nM
IC50 [23]: 3420 nM
Compound: CCCCn1c2ccc(Br)cc2c2cc(/C=N/NC(=O)c3ccncc3)ccc21

IC50 [4]: 3990 nM
IC50 [7]: 3990 nM
Compound: CCN1CCN(CC(O)Cn2c3ccccc3c3cc(C)c(OC)cc32)CC1 (stereo not drawn)
IC50 [5]: 3990 nM
IC50 [6]: 3990 nM

IC50 [8]: 1250 nM
IC50 [10]: 1250 nM
IC50 [11]: 1250 nM
IC50 [12]: 1250 nM
IC50 [13]: 1250 nM
IC50 [15]: 1250 nM
Compound: Cc1c2ccncc2c(/C=C/C(C)NC=O)c2c1[nH]c1ccccc12 (stereo not drawn)
IC50 [9]: 1250 nM
IC50 [14]: 1250 nM
IC50 [16]: 1250 nM
IC50 [17]: 1250 nM

GI50 [8]: < 10000 nM
GI50 [15]: < 10000 nM
Compound: O=C(Cn1c2ccccc2c2ccccc21)NNC(c1ccc(O)cc1)N1CCNCC1 (stereo not drawn)

IC50 [24]: 100 nM
IC50 [25]: 100 nM
IC50 [26]: 100 nM
Compound: COc1ccc2[nH]c3c(C)cc(-c4cc(-c5ccc(C(F)(F)F)cc5F)nc(N)n4)c(C)c3c2c1

IC50 [27]: 5400 nM
IC50 [28]: 5400 nM
Compound: Oc1c(C(c2ccc(C(F)(F)F)cc2)N2CCCC2)ccc2[nH]c3ccccc3c12 (stereo not drawn)

IC50 [29]: 5240 nM
IC50 [31]: 3800 nM
Compound: O=[N+]([O-])c1coc(C2c3[nH]c4ccccc4c3C(c3cc([N+](=O)[O-])co3)c3[nH]c4ccccc4c32)c1 (stereo not drawn)
IC50 at 24 h [30]: 75200 nM

IC50 [1]: 7100 nM
IC50 [2]: 7100 nM
IC50 [3]: 7100 nM
Compound: CC1CCCCN1CC(O)Cn1c2ccc(Cl)cc2c2cc(Cl)ccc21 (stereo not drawn)
